Measured values: patent publication US6737383B1, “Herbicidal oxadiazolidines” (priority 1999, dated 2004)

Key:
duck salad = assay: Test B flood test duck salad; assay type: in vivo, Heteranthera limosa
Outline: (§1)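 Each value is a visual injury score relative to controls, with 10 meaning complete control and 0 no effect. Evaluation took place twelve to sixteen days after the 2-leaf-stage plants were treated and kept in the greenhouse.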

smallflower flatsedge = assay: Test B flood test smallflower flatsedge; assay type: in vivo, Cyperus difformis
Outline: as §1

pigweed = assay: Test B pre/postemergence pigweed; assay type: in vivo, Amaranthus retroflexus
Outline: (§2)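 Response is a visual 0-to-10 score relative to untreated plants, where 0 means no effect and 10 means complete control, taken twelve to sixteen days after application. Treatments went onto soil at planting and onto foliage of 1- to 4-leaf plants, using a surfactant-containing non-phytotoxic solvent.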

giant foxtail = assay: Test B pre/postemergence giant foxtail; assay type: in vivo, Setaria faberii
Outline: as §2

soybean = assay: Test B pre/postemergence soybean; assay type: in vivo, Glycine max
Outline: as §2

sugar beet = assay: Test B pre/postemergence sugar beet; assay type: in vivo, Beta vulgaris
Outline: as §2

cocklebur = assay: Test B pre/postemergence cocklebur; assay type: in vivo, Xanthium strumarium
Outline: as §2

corn = assay: Test B pre/postemergence corn; assay type: in vivo, Zea mays
Outline: as §2

morningglory = assay: Test B pre/postemergence morningglory; assay type: in vivo, Ipomoea hederacea
Outline: as §2

rape = assay: Test B pre/postemergence rape; assay type: in vivo, Brassica napus
Outline: as §2

crabgrass = assay: Test B pre/postemergence crabgrass; assay type: in vivo, Digitaria sanguinalis
Outline: as §2

blackgrass = assay: Test B pre/postemergence blackgrass; assay type: in vivo, Alopecurus myosuroides
Outline: as §2

purple nutsedge = assay: Test B pre/postemergence purple nutsedge; assay type: in vivo, Cyperus rotundus
Outline: as §2

velvetleaf = assay: Test B pre/postemergence velvetleaf; assay type: in vivo, Abutilon theophrasti
Outline: as §2

wheat = assay: Test B pre/postemergence wheat; assay type: in vivo, Triticum aestivum
Outline: as §2

rice = assay: Test B flood test rice; assay type: in vivo, Oryza sativa
Outline: as §1

[1] = Rate 62 g/ha, headed Pre-emergence (flood test species), scale 0 to 10 (0 no effect, 10 complete control)
[2] = Rate 125 g/ha, Pre-emergence, flood test species, scale 0 to 10 where 0 is no effect and 10 is complete control
[3] = Rate 250 g/ha, Pre-emergence, flood-test species, scale 0 to 10, 0 is no effect, 10 is complete control
[4] = Rate 500 g/ha, Pre-emergence, flood test species, scale 0 to 10 (0 no effect, 10 complete control)
[5] = Preemergence, Rate 62 g/ha, scale of 0 to 10 where 0 is no effect and 10 is complete control
[6] = Preemergence, Rate 250 g/ha, scale of 0 to 10 where 0 is no effect and 10 is complete control
[7] = Preemergence, Rate 500 g/ha, scale of 0 to 10 where 0 is no effect and 10 is complete control
[8] = Rate 62 g/ha, Postemergence, scale 0 to 10 (0 no effect, 10 complete control)
[9] = Rate 125 g/ha, Postemergence, scale of 0 to 10 where 0 is no effect and 10 is complete control
[10] = Rate 125 g/ha, Preemergence, scale of 0 to 10 where 0 is no effect and 10 is complete control
[11] = Rate 250 g/ha, Postemergence, scale of 0 to 10 where 0 is no effect and 10 is complete control
[12] = Rate 500 g/ha, Postemergence, scale 0 to 10, 0 no effect, 10 complete control

CC(C)N(C(=O)n1oc(=O)n(C[Si](C)(C)C)c1=O)c1ccc(F)cc1 [Compound 294]
Ducksalad plant response rating (duck salad; [1]): 0
Ducksalad plant response rating (duck salad; [2]): 0
Ducksalad plant response rating (duck salad; [3]): 0
Ducksalad plant response rating (duck salad; [4]): 0
S. Flatsedge plant response rating (smallflower flatsedge; [1]): 0
S. Flatsedge plant response rating (smallflower flatsedge; [2]): 0
S. Flatsedge plant response rating (smallflower flatsedge; [3]): 0
S. Flatsedge plant response rating (smallflower flatsedge; [4]): 4
Redroot pigweed plant response rating (pigweed; [5]): 0
Redroot pigweed plant response rating (pigweed; [6]): 0
Plant response rating, Redroot pigweed (pigweed; [7]): 2
Redroot pigweed plant response rating (pigweed; [8]): 0
Redroot pigweed plant response rating (pigweed; [9]): 0
Redroot pigweed plant response rating (pigweed; [10]): 0
Plant response rating, Redroot pigweed (pigweed; [11]): 0
Giant foxtail plant response rating (giant foxtail; [5]): 7
Giant foxtail plant response rating (giant foxtail; [6]): 10
Plant response rating, Giant foxtail (giant foxtail; [7]): 10
Giant foxtail plant response rating (giant foxtail; [8]): 0
Giant foxtail plant response rating (giant foxtail; [9]): 0
Giant foxtail plant response rating (giant foxtail; [10]): 9
Plant response rating, Giant foxtail (giant foxtail; [11]): 2
Soybean plant response rating (soybean; [5]): 0
Soybean plant response rating (soybean; [6]): 0
Plant response rating, Soybean (soybean; [7]): 0
Soybean plant response rating (soybean; [8]): 2
Soybean plant response rating (soybean; [9]): 3
Soybean plant response rating (soybean; [10]): 0
Plant response rating, Soybean (soybean; [11]): 4
Sugarbeets plant response rating (sugar beet; [5]): 0
Sugarbeets plant response rating (sugar beet; [6]): 0
Plant response rating, Sugarbeets (sugar beet; [7]): 2
Sugarbeets plant response rating (sugar beet; [8]): 0
Sugarbeets plant response rating (sugar beet; [9]): 0
Sugarbeets plant response rating (sugar beet; [10]): 0
Plant response rating, Sugarbeets (sugar beet; [11]): 0
Cocklebur plant response rating (cocklebur; [5]): 0
Cocklebur plant response rating (cocklebur; [6]): 0
Cocklebur plant response rating (cocklebur; [8]): 0
Cocklebur plant response rating (cocklebur; [9]): 0
Cocklebur plant response rating (cocklebur; [10]): 0
Plant response rating, Cocklebur (cocklebur; [11]): 0
Cocklebur plant response rating (cocklebur; [12]): 0
Corn plant response rating (corn; [5]): 0
Corn plant response rating (corn; [6]): 0
Plant response rating, Corn (corn; [7]): 2
Corn plant response rating (corn; [8]): 0
Corn plant response rating (corn; [9]): 0
Corn plant response rating (corn; [10]): 0
Plant response rating, Corn (corn; [11]): 0
Corn plant response rating (corn; [12]): 0
Morningglory plant response rating (morningglory; [5]): 0
Morningglory plant response rating (morningglory; [6]): 0
Plant response rating, Morningglory (morningglory; [7]): 0
Morningglory plant response rating (morningglory; [8]): 6
Morningglory plant response rating (morningglory; [9]): 6
Morningglory plant response rating (morningglory; [10]): 0
Plant response rating, Morningglory (morningglory; [11]): 9
Rape plant response rating (rape; [5]): 0
Rape plant response rating (rape; [6]): 0
Plant response rating, Rape (rape; [7]): 3
Rape plant response rating (rape; [8]): 0
Rape plant response rating (rape; [9]): 0
Rape plant response rating (rape; [10]): 0
Plant response rating, Rape (rape; [11]): 2
Crabgrass plant response rating (crabgrass; [5]): 1
Crabgrass plant response rating (crabgrass; [6]): 9
Plant response rating, Crabgrass (crabgrass; [7]): 10
Crabgrass plant response rating (crabgrass; [8]): 0
Crabgrass plant response rating (crabgrass; [9]): 0
Crabgrass plant response rating (crabgrass; [10]): 9
Plant response rating, Crabgrass (crabgrass; [11]): 2
Blackgrass plant response rating (blackgrass; [5]): 0
Blackgrass plant response rating (blackgrass; [6]): 6
Plant response rating, Blackgrass (blackgrass; [7]): 10
Blackgrass plant response rating (blackgrass; [8]): 0
Blackgrass plant response rating (blackgrass; [9]): 0
Blackgrass plant response rating (blackgrass; [10]): 3
Plant response rating, Blackgrass (blackgrass; [11]): 7
Blackgrass plant response rating (blackgrass; [12]): 8
Nutsedge plant response rating (purple nutsedge; [5]): 0
Nutsedge plant response rating (purple nutsedge; [6]): 0
Plant response rating, Nutsedge (purple nutsedge; [7]): 0
Nutsedge plant response rating (purple nutsedge; [8]): 0
Nutsedge plant response rating (purple nutsedge; [9]): 0
Nutsedge plant response rating (purple nutsedge; [10]): 0
Plant response rating, Nutsedge (purple nutsedge; [11]): 0
Velvetleaf plant response rating (velvetleaf; [5]): 0
Velvetleaf plant response rating (velvetleaf; [6]): 3
Plant response rating, Velvetleaf (velvetleaf; [7]): 4
Velvetleaf plant response rating (velvetleaf; [8]): 0
Velvetleaf plant response rating (velvetleaf; [9]): 0
Velvetleaf plant response rating (velvetleaf; [10]): 0
Plant response rating, Velvetleaf (velvetleaf; [11]): 0
Wheat plant response rating (wheat; [5]): 0
Wheat plant response rating (wheat; [6]): 0
Plant response rating, Wheat (wheat; [7]): 0
Wheat plant response rating (wheat; [8]): 0
Wheat plant response rating (wheat; [9]): 0
Wheat plant response rating (wheat; [10]): 0
Plant response rating, Wheat (wheat; [11]): 0
Rice plant response rating (rice; [1]): 0
Rice plant response rating (rice; [2]): 0
Rice plant response rating (rice; [3]): 0
Rice plant response rating (rice; [4]): 0
